ChEMBL document CHEMBL1201862, “PubChem BioAssay data set” (2004)
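Values below derive from 48-hour exposures of cells grown in 96-well plates, with endpoints linearly interpolated between the two concentrations bracketing the appropriate inhibition level. GI50 is the concentration that inhibits growth by half.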 Activity calls are given as the source filed them. No stated cut-off is given here; in the data, active = GI50 up to about 1.1 µM and inactive = higher.

Key:
Assay in all cases: NCI anticancer screen, dose series, 48 h
HCT-15 = system: HCT-15
IGROV-1 = system: IGROV-1
SF-268 = system: SF-268
OVCAR-4 = system: OVCAR-4
CCRF-CEM = system: CCRF-CEM
OVCAR-5 = system: OVCAR-5
A549 = system: A549
NCI-H522 = system: NCI-H522
SK-OV-3 = system: SK-OV-3
MCF7 = system: MCF7
SNB-75 = system: SNB-75
SR = system: SR
HT-29 = system: HT-29
MOLT-4 = system: MOLT-4
HCC 2998 = system: HCC 2998
KM12 = system: KM12
NCI/ADR-RES = system: NCI/ADR-RES
Malme-3M = system: Malme-3M
NCI-H226 = system: NCI-H226
HOP-62 = system: HOP-62

Compound	GI50 (HCT-15) [µM]	GI50 (IGROV-1)	GI50 (SF-268)	GI50 (OVCAR-4)	GI50 (CCRF-CEM)	GI50 (OVCAR-5)	GI50 (A549)	GI50 (NCI-H522)	GI50 (SK-OV-3)	GI50 (MCF7)	GI50 (SNB-75)	GI50 (SR)	GI50 (HT-29)	GI50 (MOLT-4)	GI50 (HCC 2998)	GI50 (KM12)	GI50 (NCI/ADR-RES)	GI50 (Malme-3M)	GI50 (NCI-H226)	GI50 (HOP-62)
CCOC(=O)/C(=N/Nc1ccc(Cl)cc1)N1C(=S)N(C)N=C(C)C=C1S	> 100	> 100 µM (inactive)	29.9 µM (inactive)	> 100 µM (inactive)	> 100 µM (inactive)	> 100 µM (inactive)	61.8 µM (inactive)	22.1 µM (inactive)	40.3 µM (inactive)	> 100 µM (inactive)	24.2 µM (inactive)	> 100 µM (inactive)	> 100 µM (inactive)	> 100 µM (inactive)	> 100 µM (inactive)	> 100 µM (inactive)	42.9 µM (inactive)	–	–	–
CCCC(=O)Nc1cc(/C=C/C(=O)N2CC(CCl)c3c2cc(OCc2ccccc2)c2[nH]cc(C)c32)n(C)c1 (stereo not given)	0.106	0.0211 µM (active)	0.0226 µM (active)	0.069 µM (active)	0.0101 µM (active)	0.151 µM (active)	0.0219 µM (active)	0.00849 µM (active)	0.199 µM (active)	0.0025 µM (active)	0.0675 µM (active)	0.00444 µM (active)	0.0687 µM (active)	0.00855 µM (active)	0.0253 µM (active)	0.102 µM (active)	0.0238 µM (active)	0.0916 µM (active)	0.107 µM (active)	0.0491 µM (active)
Cc1sc(N)c(S(=O)(=O)c2ccccc2)c1C	> 100	> 100 µM (inactive)	> 100 µM (inactive)	> 100 µM (inactive)	> 100 µM (inactive)	> 100 µM (inactive)	> 100 µM (inactive)	> 100 µM (inactive)	> 100 µM (inactive)	> 100 µM (inactive)	> 100 µM (inactive)	> 100 µM (inactive)	> 100 µM (inactive)	> 100 µM (inactive)	> 100 µM (inactive)	> 100 µM (inactive)	> 100 µM (inactive)	> 100 µM (inactive)	> 100 µM (inactive)	–
COc1ccc2cc(/C=N/NC(=O)Nc3ccccc3)ccc2c1	> 100	> 100 µM (inactive)	–	> 100 µM (inactive)	> 100 µM (inactive)	> 100 µM (inactive)	–	–	> 100 µM (inactive)	> 100 µM (inactive)	> 100 µM (inactive)	> 100 µM (inactive)	> 100 µM (inactive)	> 100 µM (inactive)	> 100 µM (inactive)	> 100 µM (inactive)	> 100 µM (inactive)	> 100 µM (inactive)	> 100 µM (inactive)	> 100 µM (inactive)
COc1cc(N/N=C/C#N)cc(OC)c1OC	> 10	> 10 µM (inactive)	> 10 µM (inactive)	> 10 µM (inactive)	3.28 µM (inactive)	> 10 µM (inactive)	> 10 µM (inactive)	1.01 µM (active)	> 10 µM (inactive)	5.87 µM (inactive)	9.16 µM (inactive)	2.96 µM (inactive)	> 10 µM (inactive)	2.92 µM (inactive)	> 10 µM (inactive)	> 10 µM (inactive)	> 10 µM (inactive)	7.55 µM (inactive)	> 10 µM (inactive)	> 10 µM (inactive)
CC1(C)CCC2(C(=O)O)C(O)CC3(C)C(=CCC4C5(C)CCC(OC6OCC(O)C(O)C6OC6OCC(O)C(O)C6OC6OCC(O)C(OC7OC(CO)C(O)C(O)C7O)C6O)C(C)(C)C5CCC43C)C2C1 (stereo not given)	> 100	> 100 µM (inactive)	21.8 µM (inactive)	28.5 µM (inactive)	31 µM (inactive)	33.8 µM (inactive)	33.7 µM (inactive)	19.8 µM (inactive)	19.8 µM (inactive)	> 100 µM (inactive)	17.9 µM (inactive)	4.21 µM (inactive)	> 100 µM (inactive)	–	40.8 µM (inactive)	21.7 µM (inactive)	> 100 µM (inactive)	27.2 µM (inactive)	23.7 µM (inactive)	> 100 µM (inactive)
COc1ccc2c(c1)/C(=C/CCN(C)C)c1ccccc1S2	> 100	–	92.9 µM (inactive)	–	54.6 µM (inactive)	–	> 100 µM (inactive)	–	> 100 µM (inactive)	> 10 µM (inactive)	27.5 µM (inactive)	69 µM (inactive)	76.6 µM (inactive)	67.1 µM (inactive)	44.3 µM (inactive)	> 100 µM (inactive)	> 100 µM (inactive)	–	> 100 µM (inactive)	–
COc1cc(Nc2nc3ccc(C(F)(F)F)cc3nc2C(=O)O)cc(OC)c1OC	18.2	25.6 µM (inactive)	18.8 µM (inactive)	15.1 µM (inactive)	41.6 µM (inactive)	36.1 µM (inactive)	33.3 µM (inactive)	21.4 µM (inactive)	29.2 µM (inactive)	26.2 µM (inactive)	46 µM (inactive)	34.7 µM (inactive)	27 µM (inactive)	29.2 µM (inactive)	18.6 µM (inactive)	23.6 µM (inactive)	21.3 µM (inactive)	27.1 µM (inactive)	21.4 µM (inactive)	18.2 µM (inactive)
CCCCCCCNC(P(=O)(O)O)P(=O)(O)O	> 100	> 100 µM (inactive)	> 100 µM (inactive)	> 100 µM (inactive)	> 100 µM (inactive)	> 100 µM (inactive)	> 100 µM (inactive)	> 100 µM (inactive)	> 100 µM (inactive)	> 100 µM (inactive)	8.2 µM (inactive)	> 100 µM (inactive)	54.7 µM (inactive)	> 100 µM (inactive)	56.2 µM (inactive)	> 100 µM (inactive)	> 100 µM (inactive)	> 100 µM (inactive)	> 100 µM (inactive)	> 100 µM (inactive)
O=C(O)c1nc2ccc(C(F)(F)F)cc2[nH]c1=O	> 100	> 100 µM (inactive)	> 100 µM (inactive)	> 100 µM (inactive)	> 100 µM (inactive)	> 100 µM (inactive)	> 100 µM (inactive)	> 100 µM (inactive)	> 100 µM (inactive)	> 100 µM (inactive)	–	> 100 µM (inactive)	> 100 µM (inactive)	> 100 µM (inactive)	> 100 µM (inactive)	> 100 µM (inactive)	> 100 µM (inactive)	> 100 µM (inactive)	> 100 µM (inactive)	> 100 µM (inactive)
CC1CNC(NS(=O)(=O)c2cc(C(=O)Nc3ccc(F)cc3)c(Cl)cc2S)=NN1 (stereo not given)	37.8	71 µM (inactive)	50.4 µM (inactive)	> 100 µM (inactive)	42.5 µM (inactive)	59.7 µM (inactive)	49.4 µM (inactive)	33.3 µM (inactive)	> 100 µM (inactive)	41 µM (inactive)	–	43.5 µM (inactive)	51.4 µM (inactive)	59.3 µM (inactive)	40.5 µM (inactive)	49.3 µM (inactive)	> 100 µM (inactive)	29.1 µM (inactive)	36.4 µM (inactive)	75.7 µM (inactive)
O=NN(CCCl)C(=O)NC1CCSc2ccccc21 (stereo not given)	> 100	> 100 µM (inactive)	20.9 µM (inactive)	> 100 µM (inactive)	10.3 µM (inactive)	> 100 µM (inactive)	> 100 µM (inactive)	> 100 µM (inactive)	> 100 µM (inactive)	> 100 µM (inactive)	87.3 µM (inactive)	–	> 100 µM (inactive)	35.1 µM (inactive)	> 100 µM (inactive)	> 100 µM (inactive)	> 100 µM (inactive)	> 100 µM (inactive)	> 100 µM (inactive)	0.776 µM (active)
Cc1ccc(-c2c(C#N)c(-c3ccc([N+](=O)[O-])cc3)c(C#N)c(=O)n2NS(=O)(=O)c2ccccc2)cc1	36	30.9 µM (inactive)	49 µM (inactive)	28.1 µM (inactive)	19 µM (inactive)	64.4 µM (inactive)	36.6 µM (inactive)	28.6 µM (inactive)	22.4 µM (inactive)	19.2 µM (inactive)	28.4 µM (inactive)	–	41.8 µM (inactive)	18.9 µM (inactive)	25.5 µM (inactive)	31.6 µM (inactive)	26.1 µM (inactive)	29.9 µM (inactive)	70.3 µM (inactive)	30.1 µM (inactive)
COC(=O)c1c(-c2ccccc2)c2sc3ccccc3n2c1N	85.7	58.6 µM (inactive)	44 µM (inactive)	56.5 µM (inactive)	52.4 µM (inactive)	> 100 µM (inactive)	29.6 µM (inactive)	24.2 µM (inactive)	> 100 µM (inactive)	34.8 µM (inactive)	56.1 µM (inactive)	76.2 µM (inactive)	49.7 µM (inactive)	–	31.5 µM (inactive)	26.1 µM (inactive)	> 100 µM (inactive)	24.9 µM (inactive)	> 100 µM (inactive)	31.5 µM (inactive)
Cc1c2ccnc(-c3ccccc3)c2cc2c1[nH]c1ccccc12	0.773	2.63 µM (inactive)	4.31 µM (inactive)	2.56 µM (inactive)	3.26 µM (inactive)	3.77 µM (inactive)	1.29 µM (inactive)	4.52 µM (inactive)	2.9 µM (inactive)	2.13 µM (inactive)	2.33 µM (inactive)	–	0.887 µM (active)	2.75 µM (inactive)	3.07 µM (inactive)	1.45 µM (inactive)	0.492 µM (active)	3.37 µM (inactive)	2.64 µM (inactive)	2.6 µM (inactive)
